Reference: patent US20020082224A1, “NON-IMMUNOGENIC PRODRUGS AND SELECTABLE MARKERS FOR USE IN GENE THERAPY” (priority 1997, published 2002)

Assays:
[1] = tested on: HT/hPLAP cells (HT1080 cells stably expressing hPLAP); experiment: Tumor growth in nude mice inoculated with HT/hPLAP cells, dosed with EP; assay type: in vivo, nude mice (Balb/c)
Method: (§1) hPLAP is able to convert the prodrugs, mitomycin phosphate (MOP) and etoposide phosphate (EP), into an active mitomycin C derivative, mitomycin alcohol, and etoposide. 5e5 HT1080 cells or HT/hPLAP cells (HT1080 cells stably expressing hPLAP) are inoculated subcutaneously into nude mice (Balb/c). Tumor development occurs in 7-14 days. Etoposide phosphate is prepared by the method of […] et al., Cancer Res. 49:5789-92, 1988, or obtained from a pharmacy (e.g., manufactured by Bristol-Myers Squibb). Animals are dosed with EP as described ([…] et al., 1988) 2-10 days after inoculation with cells.

HT1080 cells = experiment: Tumor growth in nude mice inoculated with parental HT1080 cells, dosed with EP; assay type: in vivo, nude mice (Balb/c); settings: s.c. inoculation of 5e5 cells, EP dosed 2-10 days after inoculation
Method: as §1

[2] = tested on: acute myeloblastic leukemia (AML); settings: as a single agent; % of patients; cited from earlier work
[3] = cited from earlier work

| SMILES | specificity of EP effect, HT1080 cells in one flank and HT/hPLAP cells in the contralateral flank ([1]; both cell types in the same animal) | effect on tumor growth of HT/hPLAP cells ([1]; s.c. inoculation of 5e5 cells, EP dosed 2-10 days after inoculation) | effect on tumors from parental HT1080 cells (HT1080 cells) | remission induced in patients with acute myeloblastic leukemia (AML) [2] | concentrations in the CSF relative to plasma ([3]; IV infusion, after 2 hours of continuous infusion) | Plasma half life ([3]; due to rapid deamination) |
| --- | --- | --- | --- | --- | --- | --- |
| COc1cc([C@@H]2c3cc4c(cc3[C@@H](O[C@@H]3O[C@@H]5CO[C@@H](C)O[C@H]5[C@H](O)[C@H]3O)[C@H]3COC(=O)[C@H]23)OCO4)cc(OC)c1OP(=O)(O)O [EP, etoposide phosphate] | specific for cells expressing HPLAP | dose-dependent reduction in tumor growth | resistant to the effect of EP |  |  |  |
| Nc1ccn([C@@H]2O[C@H](CO)[C@@H](O)[C@@H]2O)c(=O)n1 [ara-C, cytosine arabinoside] |  |  |  | 50% | 50% | less than 20 minutes |
